From the NIST ThermoML archive (doi:10.1016/j.jct.2015.07.014)

Test: xn = mol fraction of the nth substance listed
Conditions: Fluid (supercritical or subcritical phases), Buoyancy - hydrostatic balance with magnetic suspension - one sinker

N#N [nitrogen] + O=C=O
mass density [kg/m3]
Conditions	x1 = 0.95	x1 = 0.99
298.11 K, 30854 kPa	318.784	–
298.15 K, 30889 kPa	–	306.308
298.18 K, 10974 kPa	128.536	–
298.18 K, 26965 kPa	–	276.485
298.18 K, 28960 kPa	304.08	291.991
298.19 K, 10975 kPa	–	124.2
298.19 K, 12974 kPa	151.108	–
298.19 K, 12977 kPa	–	145.801
298.19 K, 14973 kPa	173.056	–
298.19 K, 14975 kPa	–	166.746
298.19 K, 16968 kPa	194.247	–
298.19 K, 16973 kPa	–	186.99
298.19 K, 18971 kPa	214.733	206.482
298.19 K, 20971 kPa	–	225.196
298.19 K, 20972 kPa	234.34	–
298.19 K, 22968 kPa	253.055	–
298.19 K, 22969 kPa	–	243.092
298.19 K, 24966 kPa	270.906	–
298.19 K, 24967 kPa	–	260.186
298.19 K, 26964 kPa	287.919	–
323.18 K, 10979 kPa	116.684	–
323.18 K, 14973 kPa	156.725	–
323.18 K, 28962 kPa	–	266.975
323.18 K, 30957 kPa	291.768	280.954
323.19 K, 12977 kPa	136.963	–
323.19 K, 14974 kPa	–	151.425
323.19 K, 20974 kPa	212.443	–
323.19 K, 22968 kPa	229.628	–
323.19 K, 24967 kPa	246.174	–
323.19 K, 24968 kPa	–	237.145
323.19 K, 26966 kPa	–	252.374
323.19 K, 28961 kPa	277.225	–
323.2 K, 12978 kPa	–	132.477
323.2 K, 16971 kPa	175.903	–
323.2 K, 16973 kPa	–	169.822
323.2 K, 18972 kPa	194.494	–
323.2 K, 18975 kPa	–	187.629
323.2 K, 20974 kPa	–	204.784
323.2 K, 22971 kPa	–	221.285
323.2 K, 26964 kPa	262.031	–
323.21 K, 10980 kPa	–	112.998
348.15 K, 14974 kPa	143.613	–
348.16 K, 12976 kPa	125.56	–
348.16 K, 26965 kPa	–	232.594
348.16 K, 28963 kPa	–	246.335
348.17 K, 10975 kPa	107.02	103.828
348.18 K, 12974 kPa	–	121.664
348.18 K, 20972 kPa	–	188.207
348.18 K, 24966 kPa	–	218.313
348.18 K, 30959 kPa	–	259.551
348.19 K, 16972 kPa	161.157	–
348.19 K, 18968 kPa	–	172.299
348.19 K, 30958 kPa	268.893	–
348.2 K, 14978 kPa	–	139.081
348.2 K, 22973 kPa	–	203.544
348.2 K, 26965 kPa	240.883	–
348.21 K, 16969 kPa	–	155.902
348.21 K, 22970 kPa	210.667	–
348.21 K, 24968 kPa	226.054	–
348.22 K, 18976 kPa	178.236	–
348.23 K, 20969 kPa	194.689	–
348.24 K, 28961 kPa	255.123	–
373.11 K, 14975 kPa	132.811	–
373.14 K, 10975 kPa	99.052	–
373.14 K, 10978 kPa	–	96.257
373.14 K, 24968 kPa	–	202.615
373.14 K, 26966 kPa	–	216.025
373.16 K, 20970 kPa	180.142	–
373.16 K, 28962 kPa	–	228.969
373.17 K, 12975 kPa	116.113	–
373.17 K, 12978 kPa	–	112.737
373.17 K, 30957 kPa	249.734	–
373.18 K, 14973 kPa	–	128.781
373.18 K, 16969 kPa	148.99	–
373.19 K, 18968 kPa	164.767	–
373.19 K, 22970 kPa	194.991	–
373.19 K, 24968 kPa	209.378	–
373.19 K, 26966 kPa	223.295	–
373.19 K, 30958 kPa	–	241.48
373.2 K, 16976 kPa	–	144.455
373.2 K, 18972 kPa	–	159.653
373.2 K, 22969 kPa	–	188.731
373.2 K, 28961 kPa	236.723	–
373.21 K, 20974 kPa	–	174.438
398.12 K, 10979 kPa	92.339	–
398.15 K, 16976 kPa	–	134.736
398.17 K, 10981 kPa	–	89.797
398.17 K, 26965 kPa	–	201.89
398.17 K, 30957 kPa	–	226.029
398.17 K, 30958 kPa	233.41	–
398.18 K, 28962 kPa	221.089	–
398.18 K, 28963 kPa	–	214.146
398.19 K, 14974 kPa	–	120.089
398.19 K, 20968 kPa	–	162.734
398.2 K, 12973 kPa	108.135	–
398.2 K, 14975 kPa	123.655	–
398.2 K, 18973 kPa	–	148.923
398.2 K, 22966 kPa	–	176.162
398.2 K, 24970 kPa	–	189.239
398.21 K, 18973 kPa	153.504	–
398.21 K, 22970 kPa	181.754	–
398.21 K, 24969 kPa	195.274	–
398.21 K, 26967 kPa	208.381	–
398.22 K, 12974 kPa	–	105.084
398.22 K, 20969 kPa	167.809	–
398.23 K, 16974 kPa	138.767	–
423.11 K, 14972 kPa	–	112.628
423.13 K, 24967 kPa	183.194	–
423.13 K, 26965 kPa	195.591	–
423.13 K, 28962 kPa	207.636	–
423.13 K, 30956 kPa	219.326	–
423.14 K, 22965 kPa	170.413	–
423.16 K, 16970 kPa	–	126.322
423.16 K, 18970 kPa	143.837	–
423.16 K, 20971 kPa	157.318	–
423.17 K, 12979 kPa	–	98.597
423.17 K, 18968 kPa	–	139.677
423.18 K, 10978 kPa	86.517	–
423.18 K, 10979 kPa	–	84.203
423.18 K, 12971 kPa	101.311	–
423.18 K, 14973 kPa	115.841	–
423.18 K, 16967 kPa	129.977	–
423.18 K, 20972 kPa	–	152.731
423.18 K, 30957 kPa	–	212.642
423.19 K, 22973 kPa	–	165.419
423.21 K, 24968 kPa	–	177.709
423.21 K, 28961 kPa	–	201.322
423.22 K, 26966 kPa	–	189.691
